This note sets out measurements from US11254670B2 (NUVATION BIO INC., priority 2019, dated 2022).

Bounds are passed on as bounds.

Test [1] concerns the target adenosine A1 (human) membrane (Homo sapiens (Human), UniProt P30542). Kind of test: A1 adenosine receptor radioligand binding assay ([3H] DPCPX). The following applies: radioligand [3H] DPCPX 1 nM, compound 200 nM. On the procedure:
A second A1 adenosine receptor radioligand binding assay protocol was used. The protocol used adenosine A1 (human) membrane (PerkinElmer ES-010-M400UA) at a concentration of 2.5 μg/well/100 μl and the radioligand [3H] DPCPX (Cat No. PerkinElmer-NET974250UC) at a final concentration of 1 nM. Testing compounds were tested at a final concentration of 200 nM. CGS-15943, the reference compound, was tested in an 8-point 4-fold serial dilution, starting at a top concentration of 1 μM. 1 μl of compounds/high control/low control was transferred to the assay plate according to a plate map, followed by 100 μl of membrane stocks and 100 μl of radioligand, in assay buffer (25 mM HEPES, 5 mM MgCl2, 1 mM CaCl2, 100 mM NaCl, pH 7.4). The plate was sealed and incubated at RT for 1 hour. Unifilter-96 GF/C filter plates (Perkin Elmer Cat #6005174) were soaked with 50 μl of 0.3% PEI per well for at least 0.5 hour at room temperature. When the binding assays were completed, the reaction mixtures were filtered through GF/C plates using Perkin Elmer Filtermate Harvester, and each plate washed 4 times with cold wash buffer (25 mM HEPES, 5 mM MgCl2, 1 mM CaCl2, 100 mM NaCl, pH 7.4). The filter plates were dried for 1 hour at 50 degrees. After drying, the bottom of the filter plate wells was sealed, 50 μl of Perkin Elmer Microscint 20 cocktail was added, and the top of the filter plate was sealed. ^3H trapped on the filter was counted using Perkin Elmer MicroBeta2 Reader. The data were analyzed with GraphPad Prism 5 to obtain binding IC50 values for the reference compound. The “Inhibition [% Control]” was calculated using the equation: % Inh=(1−Background subtracted Assay value/Background subtracted HC value)*100, where HC is high control.

Test [2] addresses human recombinant adenosine A1 receptor (Homo sapiens (Human), UniProt P30542). Kind of test: cAMP assay (Assay 2), HEK-293 cells expressing A1 receptor. The class given is cell-based. The method, then: (§1) The functional activity of compounds was tested using Assay 2, below, to detect the presence of cAMP. Assay 1 is an alternative assay for this purpose. Activation of G-protein coupled receptors (such as A2A) results in activation of adenylyl cyclase which converts ATP into cAMP which is used as a downstream signaling molecule. Therefore, molecules which act as GPCR (or specifically A2A receptor) antagonists cause a decrease in intracellular cAMP concentration.
(§2) Assay 2 (Table B2): This assay used HEK-293 cells expressing human recombinant adenosine A2A receptor (or, alternatively, A1 receptor) that were grown prior to the test in media without antibiotic. 100 nL of test articles at 100× of final concentration were transferred to assay plate by Echo. Cells were washed twice with 5 mL of PBS and 10 μL of cells were mixed with 5 mL PBS. After aspirating the PBS and adding 1.5 mL versine, cells were incubated at 37° C. for 2-5 min. After centrifugation, 4 mL of medium was added and adjusted cell density to 5,000 cells/well with Stimulation Buffer. 10 μL of cells were aliquoted to the assay plate, centrifuged at 1000 rpm for 1 minute, and incubated for 60 minutes at room temperature. 5 μL 4× Eu-cAMP tracer solution and 5 μL 4× Ulight™-anti-cAMP solution were added to assay plate, followed by centrifugation and 60-minute incubation at room temperature. Plates were read on EnVision.

Test [3] concerns the target human recombinant adenosine A2A receptor (Homo sapiens (Human), UniProt P29274). Kind of test: cAMP assay (Assay 2), HEK-293 cells expressing A2A receptor. The class given is cell-based. Particulars: HEK-293 cells expressing human recombinant adenosine A2A receptor. On the procedure: as §1, §2
In another test the test system is activated human PBMCs. Kind of test: Human T cell activation assay (TNF-α and IFN-γ ELISA). The class given is cell-based. The following applies: activated human T cells in vitro, NECA 1 μM or 5 μM. The method, then:
Human T Cell Activation Assay: Fresh human blood was diluted with the same volume of PBS and the buffy coat containing peripheral blood mononuclear cells (PBMCs) were prepared and resuspended in culture medium at a density of 2×10^6/mL. 2×10^5 PBMCs (in 100 μL) were plated to each well of a 96-well flat bottom plate. 25 μL of 8× final concentration of 10-fold serial diluted or single concentration compounds was added to indicated wells and incubated for 30 mins in 37° C./5% CO2. 25 μL of 8× final concentration of NECA (1 μM or 5 μM) was added to selected wells and incubated for 30 min in 37° C./5% CO2. Beads included in T cell activation/expansion kit (Miltenyi biotec Cat #130-091-441) at a bead-to-cell ratio of 1:6 in 50 μL were added to all wells with the final concentration of DMSO at 0.1% and final volume at 200 μL. 60 μL of supernatant post 24 hr and 48 hr incubation was collected for TNF-α and IFN-γ concentration evaluation using TNF-α ELISA ready-set-go kit (eBioscience, Cat #88-7346-77) and IFN-γ ELISA ready-set-go kit (eBioscience, Cat #88-7316-77), respectively.
For orientation: An ELISA detects its analyte on a solid surface through an enzyme-linked reagent.

For test [4], the target named is adenosine A2a (human) membrane (Homo sapiens (Human), UniProt P29274). Kind of test: A2A adenosine receptor radioligand binding assay ([3H] CGS-21680). Particulars: radioligand [3H] CGS-21680 6 nM. On the procedure:
A second A2A adenosine receptor radioligand binding assay protocol was used. The protocol used adenosine A2a (human) membrane (PerkinElmer RBHA2AM400UA) at a concentration of 5 μg/well/100 μl and the radioligand [3H] CGS-21680 (Cat No. PerkinElmer-NET1021250UC) at a final concentration of 6 nM. Testing compounds were diluted with DMSO to make 8-point 4-fold serial dilution, starting at 0.2 mM. CGS-15943 was the reference compound. 1 μl of compounds/high control/low control was transferred to the assay plate according to a plate map, followed by 100 μl of membrane stocks and 100 μl of radioligand, in assay buffer (50 mM Tris-HCl, 10 mM MgCl2, 1 mM EDTA, pH 7.4). The plate was sealed and incubated at RT for 2 hours. Unifilter-96 GF/C filter plates (Perkin Elmer Cat #6005174) were soaked with 50 μl of 0.3% PEI per well for at least 0.5 hour at room temperature. When the binding assays were completed, the reaction mixtures were filtered through GF/C plates using Perkin Elmer Filtermate Harvester, and each plate washed 4 times with cold wash buffer (50 mM Tris-HCl, 154 mM NaCl, pH 7.4). The filter plates were dried for 1 hour at 50 degrees. After drying, the bottom of the filter plate wells was sealed, 50 μl of Perkin Elmer Microscint 20 cocktail was added, and the top of the filter plate was sealed. ^3H trapped on the filter was counted using Perkin Elmer MicroBeta2 Reader. The data were analyzed with GraphPad Prism 5 to obtain binding IC50 values. The “Inhibition [% Control]” was calculated using the equation: % Inh=(1−Background subtracted Assay value/Background subtracted HC value)*100, where HC is high control.

A word on the inhibition: it is the share of the control response that was lost under treatment. For orientation: IC50 means the midpoint of a concentration-inhibition curve.

Sequence of human recombinant adenosine A2A receptor (P29274 whole entry): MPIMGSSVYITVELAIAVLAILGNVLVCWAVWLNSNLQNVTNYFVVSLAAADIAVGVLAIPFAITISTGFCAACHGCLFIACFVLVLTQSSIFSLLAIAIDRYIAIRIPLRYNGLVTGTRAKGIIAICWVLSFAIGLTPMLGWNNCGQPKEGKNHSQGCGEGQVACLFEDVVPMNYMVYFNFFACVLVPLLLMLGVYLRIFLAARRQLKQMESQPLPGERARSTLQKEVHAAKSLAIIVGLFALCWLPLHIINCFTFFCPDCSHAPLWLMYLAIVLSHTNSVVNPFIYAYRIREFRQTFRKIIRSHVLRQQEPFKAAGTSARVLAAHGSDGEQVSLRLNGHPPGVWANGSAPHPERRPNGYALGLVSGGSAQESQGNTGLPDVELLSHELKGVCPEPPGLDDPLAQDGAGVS
Sequence of adenosine A2a (human) membrane (P29274 whole entry): as above
Sequence of adenosine A1 (human) membrane (P30542 whole entry): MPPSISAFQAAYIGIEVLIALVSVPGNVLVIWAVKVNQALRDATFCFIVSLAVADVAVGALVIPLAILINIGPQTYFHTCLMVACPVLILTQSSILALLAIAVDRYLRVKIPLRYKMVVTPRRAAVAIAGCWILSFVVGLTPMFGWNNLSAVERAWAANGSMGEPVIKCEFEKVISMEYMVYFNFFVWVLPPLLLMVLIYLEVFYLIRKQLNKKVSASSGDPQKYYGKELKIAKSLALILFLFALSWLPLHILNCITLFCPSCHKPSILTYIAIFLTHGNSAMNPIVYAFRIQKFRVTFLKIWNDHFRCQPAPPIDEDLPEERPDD
Sequence of human recombinant adenosine A1 receptor (P30542 whole entry): as above

With `CC(C)n1cc(-c2cc3c(=O)cc[nH]c3nc2-c2ccccc2)ccc1=O` [Compound 1, 6-(1-isopropyl-6-oxo-1,6-dihydropyridin-3-yl)-7-phenyl-1,8-naphthyridin-4(1H)-one], at 0.2 µM the inhibition in test [1] was 98%. Further, the values for the IC50 in test [2], in test [3] and in test [4] were 0.0032 µM, 0.0338 µM and 0.0026 µM, respectively. Moreover, the “reversal of NECA-mediated suppression of TNF-α secretion” value in the test on activated human PBMCs (FIG. 1) is reported as “reversed NECA-mediated suppression”. Further, the “reversal of NECA-mediated suppression of IFN-γ secretion” value in the test on activated human PBMCs (FIG. 2) is on record as “reversed NECA-mediated suppression”.

`N#Cc1cccc(-c2nc3[nH]ccc(=O)c3cc2-c2ccc3[nH]ncc3c2)c1` [Compound 78, 3-(3-(1H-indazol-5-yl)-5-oxo-5,8-dihydro-1,8-naphthyridin-2-yl)benzonitrile] yielded an inhibition at 0.2 µM in test [1] of 81%. Moreover, the IC50 in test [4] was 0.049 µM.

Compound `N#Cc1cccc(-c2nc3[nH]ccc(=O)c3cc2-c2ccc3[nH]cnc3c2)c1` [Compound 80, 3-(3-(1H-benzo[d]imidazol-5-yl)-5-oxo-5,8-dihydro-1,8-naphthyridin-2-yl)benzonitrile] returned an inhibition at 0.2 µM in test [1] of 79%. In addition, the IC50 in test [4] was 0.017 µM.

`Cn1cc(-c2cc3c(=O)cc[nH]c3nc2-c2ccccc2)ccc1=O` [Compound 76] returned an inhibition at 0.2 µM in test [1] of 92%. In addition, the IC50 in test [3] worked out at 0.156 µM.

In the case of `Cc1cc(-c2cc3c(=O)cc[nH]c3nc2-c2ccccc2)cc(Cl)c1NS(C)(=O)=O` [Compound 45, N-(2-chloro-6-methyl-4-(5-oxo-2-phenyl-5,8-dihydro-1,8-naphthyridin-3-yl)phenyl)methanesulfonamide], at 0.2 µM the inhibition in test [1] was 34%. Further, the IC50 in test [3] was above 10 µM.

Turning to `N#Cc1cccc(-c2nc3[nH]ccc(=O)c3cc2-c2ccc3ncccc3c2)c1` [Compound 77, 3-(5-oxo-3-(quinolin-6-yl)-5,8-dihydro-1,8-naphthyridin-2-yl)benzonitrile], the inhibition at 0.2 µM in test [1] was found to be 61%. Also, the IC50 in test [3] amounted to 0.213 µM; in test [4], 0.0054 µM.

On to `CC(C)n1cc(-c2cc3c(=O)cc[nH]c3nc2-c2ccccc2)cc(Cl)c1=O` [Compound 7, 6-(5-chloro-1-isopropyl-6-oxo-1,6-dihydropyridin-3-yl)-7-phenyl-1,8-naphthyridin-4(1H)-one], for which the IC50 in test [2] amounted to 0.0058 µM; in test [3] it was 0.011 µM; in test [4], 0.0035 µM.

As for `Cc1cc(-c2cc3c(=O)cc[nH]c3nc2-c2cccc(C#N)c2)cc(Cl)n1` [Compound 6, 3-(3-(2-chloro-6-methylpyridin-4-yl)-5-oxo-5,8-dihydro-1,8-naphthyridin-2-yl)benzonitrile], the inhibition at 0.2 µM in test [1] worked out at 26%. The compound further came in with an IC50 in test [4] of 0.113 µM.

With `N#Cc1cccc(-c2nc3[nH]ccc(=O)c3cc2-c2ccc3ncsc3c2)c1` [Compound 79, 3-(3-(benzo[d]thiazol-6-yl)-5-oxo-5,8-dihydro-1,8-naphthyridin-2-yl)benzonitrile], in test [1], the inhibition at 0.2 µM turned out to be 85%. Moreover, the IC50 in test [4] amounted to 0.0095 µM.

In the case of `Cn1cc(-c2cc3c(=O)cc[nH]c3nc2-c2ccccc2)cc(Cl)c1=O` [Compound 75], the inhibition at 0.2 µM in test [1] worked out at 82%. The IC50 in test [3] turned out to be 0.195 µM.

In turn, `Cc1cc(-c2cc3c(=O)cc[nH]c3nc2-c2cccc(C#N)c2C)cc(Cl)n1` [Compound 3, 3-(3-(2-chloro-6-methylpyridin-4-yl)-5-oxo-5,8-dihydro-1,8-naphthyridin-2-yl)-2-methylbenzonitrile] registered an inhibition at 0.2 µM in test [1] of 7%. Also, in test [4], the IC50 was determined as 2.6 µM.

For `Cc1c(C#N)cccc1-c1nc2[nH]ccc(=O)c2cc1-c1ccc2ncccc2c1` [Compound 55, 2-methyl-3-(5-oxo-3-(quinolin-6-yl)-5,8-dihydro-1,8-naphthyridin-2-yl)benzonitrile], the inhibition at 0.2 µM in test [1] was 5%. This compound also displayed an IC50 in test [4] of 0.179 µM.
